Assay results as given in US20200281834A1, “COMPOSITION FOR PROMOTING EXPRESSION OF AQUAPORIN 3, AND USE THEREOF” (SUNTORY HOLDINGS LIMITED, priority 2017, published 2020).
“And” between values parts separate entries of the source, which are not always exact repeats. Identical values can stand only once.

Test system: aquaporin 3
Assay: Expression level of aquaporin 3 in skin epithelial cells (real-time PCR, corrected for GAPDH)
Format: cell-based, Human
Details: NHEK, 24 hours
[1] = 30 μM, control (culture solution) = 1.0
[2] = 50 μM, control (culture solution) = 1.0

Procedure: As a control, 50% ethanol was prepared.
As a positive control, retinoic acid was prepared.
Human epidermal keratinocytes (NHEK (AD)) were precultured under conditions of 37° C. and 5% CO2 in a serum-free liquid medium for growing human epidermal keratinocyte (HuMedia-KG2 manufactured by Kurabo Industries, Ltd.) in a 21 cm^2 dish, and cultured until the cells became sub-confluent.
Next, each test sample was added to the culture solution. Each test sample was added to the culture solution in such a manner that the concentration of the wine in the culture solution was equivalent to 1/400 of the concentration of each original composition (wine).
After each test sample was added, the cells were cultured under conditions of 37° C. and 5% CO2 for 24 hours.
Instead of each test sample, 0.125 mL of 50% ethanol as a control was added to 5 mL of the culture solution.
Instead of each test sample, retinoic acid as a positive control was added to the culture solution in such a manner that the concentration of the retinoic acid in the culture solution was 2 μM.
After the compositions as the controls were added, the cells were cultured under conditions of 37° C. and 5% CO2 for 24 hours.
After the culture of skin epithelial cells in “(2) Culture of Skin Epithelial Cells”, RNA was extracted from the cultured cells with ISOGEN (manufactured by Nippon Gene Co., Ltd.).
From 1 μg of the resulting RNA, cDNA was synthesized with Superscript VILO Master Mix (manufactured by Invitrogen).
Thereafter, with primers (primers having nucleotide sequences of SEQ ID NOS: 1 and 2) shown in Table 4, real-time PCR was performed to detect expression of aquaporin 3 (Genbank Accession No. NM_004925).
For PCR, KOD SYBR qPCR Mix (manufactured by Toyobo Co., Ltd.) was used, and the reaction conditions were set such that thermal denaturation was carried out at 98° C. for 10 seconds, annealing was carried out at 60° C. for 10 seconds, and elongation reaction was carried out at 68° C. for 30 seconds.
The fluorescence intensity in the process of amplification was monitored with a quantitative PCR apparatus StepOnePlus (manufactured by Applied Biosystems) to determine the number of cycles taken until the fluorescence intensity became constant. From the number of cycles for aquaporin 3, the expression level was calculated through a standard method.
In parallel to detection of the expression level of aquaporin 3 by real-time PCR, the expression level of glyceraldehyde-3-phosphate dehydrogenase (GAPDH) (Genbank Accession No. NM_002046) which is a housekeeping gene was measured with primers (primers having nucleotide sequences of SEQ ID NOS: 3 and 4) shown in Table 4.
The expression level of aquaporin 3 in the cultured cells was corrected for the expression level of GAPDH, and the expression level relative against the expression level of aquaporin 3 in the control was calculated, where the expression level of aquaporin 3 in the control was defined as 1.0.
The expression level of aquaporin 3 in skin epithelial cells was measured in the same manner as in “Method for Evaluating Expression Level of Aquaporin 3” except that instead of each test sample, 0.0125 mL of each fraction was added to 5 mL of a culture solution.
Each compound was dissolved in a human epidermal keratinocyte growing serum-free liquid medium (HuMedia-KG2 manufactured by Kurabo Industries, Ltd.) to prepare a test sample.
The culture solution was used as a control.

Compound: CC1=C(/C=C/C(C)=C/C=C/C(C)=C/C(=O)O)C(C)(C)CCC1 [Retinoic acid, retinoic acid]
- Relative gene expression level (average) of aquaporin 3 (2 μM, control (50% ethanol) = 1.0): 1.61
- Relative gene expression level (average) of aquaporin 3 (2 μM, control (culture solution) = 1.0, listed as RA): 1.32 and 1.36 and 1.21

Compound: Oc1cc(O)c2c(c1)O[C@H](c1ccc(O)c(O)c1)[C@H](O)C2 [EC, epicatechin]
- Relative gene expression level (average) of aquaporin 3 [1]: 1.15
- Relative gene expression level (average) of aquaporin 3 [2]: 1.21

Compound: O=C(O[C@@H]1Cc2c(O)cc(O)cc2O[C@@H]1c1ccc(O)c(O)c1)c1cc(O)c(O)c(O)c1 [ECG, epicatechin gallate]
- Relative gene expression level (average) of aquaporin 3 [1]: 1.63
- Relative gene expression level (average) of aquaporin 3 [2]: 1.25

Compound: catechin
- Relative gene expression level (average) of aquaporin 3 [1]: 1.19
- Relative gene expression level (average) of aquaporin 3 [2]: 1.14

Compound: Oc1cc(O)c2c(c1)O[C@H](c1ccc(O)c(O)c1)[C@H](O)[C@H]2c1c(O)cc(O)c2c1O[C@H](c1ccc(O)c(O)c1)[C@@H](O)C2 [EC-C, Procyanidin B1]
- Relative gene expression level (average) of aquaporin 3 [1]: 1.14
- Relative gene expression level (average) of aquaporin 3 [2]: 1.20

Compound: (+)-catechin-(+)-catechin-(−)-epicatechin-3-O-gallate [C-C-ECG]
- Relative gene expression level (average) of aquaporin 3 [1]: 2.01
- Relative gene expression level (average) of aquaporin 3 [2]: 2.50

Compound: Oc1cc(O)c2c(c1)O[C@H](c1ccc(O)c(O)c1)[C@@H](O)[C@@H]2c1c(O)cc(O)c2c1O[C@H](c1ccc(O)c(O)c1)[C@@H](O)C2 [C-C, Procyanidin B3]
- Relative gene expression level (average) of aquaporin 3 [1]: 1.19
- Relative gene expression level (average) of aquaporin 3 [2]: 1.27

Compound: O=C(O[C@@H]1Cc2c(O)cc(O)c([C@@H]3c4c(O)cc(O)cc4O[C@H](c4ccc(O)c(O)c4)[C@H]3O)c2O[C@@H]1c1ccc(O)c(O)c1)c1cc(O)c(O)c(O)c1 [C-ECG, (+)-catechin-(−)epicatechin-3-O-gallate]
- Relative gene expression level (average) of aquaporin 3 [1]: 2.19
- Relative gene expression level (average) of aquaporin 3 [2]: 2.59

Compound: Oc1cc(O)c2c(c1)O[C@H](c1ccc(O)c(O)c1)[C@H](O)[C@H]2c1c(O)cc(O)c2c1O[C@H](c1ccc(O)c(O)c1)[C@H](O)C2 [EC-EC, procyanidin B2]
- Relative gene expression level (average) of aquaporin 3 [1]: 0.98
- Relative gene expression level (average) of aquaporin 3 [2]: 0.99

Compound: O=C(O[C@@H]1Cc2c(O)cc(O)cc2O[C@@H]1c1cc(O)c(O)c(O)c1)c1cc(O)c(O)c(O)c1 [EGCG, epigallocatechin gallate]
- Relative gene expression level (average) of aquaporin 3 [1]: 1.36
- Relative gene expression level (average) of aquaporin 3 [2]: 1.47

Compound: Oc1cc(O)c2c(c1)O[C@H](c1ccc(O)c(O)c1)[C@@H](O)[C@@H]2c1c(O)cc(O)c2c1O[C@H](c1ccc(O)c(O)c1)[C@H](O)C2 [C-EC, procyanidin B4]
- Relative gene expression level (average) of aquaporin 3 [1]: 1.24
- Relative gene expression level (average) of aquaporin 3 [2]: 1.12

Compound: Oc1cc(O)c2c(c1)O[C@H](c1ccc(O)c(O)c1)[C@H](O)[C@H]2c1c(O)cc(O)c2c1O[C@H](c1ccc(O)c(O)c1)[C@H](O)[C@H]2c1c(O)cc(O)c2c1O[C@H](c1ccc(O)c(O)c1)[C@H](O)C2 [PC1, procyanidin C1]
- Relative gene expression level (average) of aquaporin 3 [1]: 1.41
- Relative gene expression level (average) of aquaporin 3 [2]: 1.34
